Data on 26 compounds can be found in patent US20240391931A1 (Bristol-Myers Squibb Company, priority 2021, published 2024).

Broadly, the pIC50 is the IC50 on a negative log10 scale, so that one unit is a factor of ten.

This experiment has as its target T1, EGFR WT (Homo sapiens, UniProt P00533).
T1 construct: purchased Thermo Fisher, Carlsbad, CA ERBB1 PR7295B
Nature of the experiment: Enzymatic assay EGFR WT (method c). Type of experiment: biochemical. To be noted: [EGFR WT]=2 nM, [ATP]=1 mM, [Peptide 22]=1 μM. On the procedure:
A 2× stock solution of HER2 WT (ERBB2 0108-0000-1; ProQinase, Freiburg, Germany) corresponding to method a, was prepared as described below. Alternatively, a 2× stock solution of HER2YVMA (custom purification; Viva biotech, Shanghai, China) corresponding to method b, was prepared as described below. For method c, a 2× stock of EGFR (ERBB1 PR7295B, Thermo Fisher, Carlsbad, CA) was prepared as described below. All 2× solutions were prepared in buffer containing 50 mM HEPES, pH 7.5, 10 mM MnCl2, MgCl2, 0.005% Tween 20, 1 mM TCEP. 25 ul of 2× enzyme solution was added to a Seahorse low volume 384-well polypropylene assay plate (201288-100, Seahorse Bioscience, Chicopee, MA) containing 1 μl of compound serially diluted in 50% DMSO. To initiate the reaction, 25 μl of solution containing 2× final concentration of ATP and ProfilerPro Peptide 22 (760366, Perkin Elmer Hopkinton, MA) was added to each well. The reactions were separated on an LC3000 (Caliper Life Sciences) or a LabChip EZReader (Perkin Elmer) in kinetic mode.
At the conclusion of each assay, the data were exported from the instrument as a .rda file (LC3000) and processed in proprietary software, EZReviewer, which determines the percent of substrate converted to product within a given cycle as (P/P+S)*100 by measuring the amplitude of substrate and product peaks. Cycle time varied with amount of compounds tested between 8 and 12 cycles. Initial velocity (0-3600 s) from each reaction was determined from the slope of a plot of percent conversion at each cycle versus time (seconds). Percent inhibition was determined by dividing the slope of each reaction by the uninhibited control using 100*(1-(x/uninhibited control)). IC50 estimates were obtained by plotting the concentration of inhibitor versus percent inhibition in GraphPad Prism (GraphPad Software, San Diego, CA) using log[inhibitor] versus Response (Variable Slope Model); Y=Min+((Max-Min)/(1+((IC50/x)^Hillslope)))
• a) [HER2 WT]=12.5 nM, [ATP]=25 μM, [Peptide 22]=1 μM (ATP KMapp˜25 μM) • b) [HER2YVMA]=5 nM, [ATP]=25 μM, [Peptide 22]=1 μM (ATP KMapp˜15 μM) • c) [EGFR WT]=2 nM, [ATP]=1 mM, [Peptide 22]=1 μM (ATP KMapp˜25 μM)

SMILES strings stand for the structures. pIC50: −log10 of the molar value.

T1 sequence (P00533 25-1210): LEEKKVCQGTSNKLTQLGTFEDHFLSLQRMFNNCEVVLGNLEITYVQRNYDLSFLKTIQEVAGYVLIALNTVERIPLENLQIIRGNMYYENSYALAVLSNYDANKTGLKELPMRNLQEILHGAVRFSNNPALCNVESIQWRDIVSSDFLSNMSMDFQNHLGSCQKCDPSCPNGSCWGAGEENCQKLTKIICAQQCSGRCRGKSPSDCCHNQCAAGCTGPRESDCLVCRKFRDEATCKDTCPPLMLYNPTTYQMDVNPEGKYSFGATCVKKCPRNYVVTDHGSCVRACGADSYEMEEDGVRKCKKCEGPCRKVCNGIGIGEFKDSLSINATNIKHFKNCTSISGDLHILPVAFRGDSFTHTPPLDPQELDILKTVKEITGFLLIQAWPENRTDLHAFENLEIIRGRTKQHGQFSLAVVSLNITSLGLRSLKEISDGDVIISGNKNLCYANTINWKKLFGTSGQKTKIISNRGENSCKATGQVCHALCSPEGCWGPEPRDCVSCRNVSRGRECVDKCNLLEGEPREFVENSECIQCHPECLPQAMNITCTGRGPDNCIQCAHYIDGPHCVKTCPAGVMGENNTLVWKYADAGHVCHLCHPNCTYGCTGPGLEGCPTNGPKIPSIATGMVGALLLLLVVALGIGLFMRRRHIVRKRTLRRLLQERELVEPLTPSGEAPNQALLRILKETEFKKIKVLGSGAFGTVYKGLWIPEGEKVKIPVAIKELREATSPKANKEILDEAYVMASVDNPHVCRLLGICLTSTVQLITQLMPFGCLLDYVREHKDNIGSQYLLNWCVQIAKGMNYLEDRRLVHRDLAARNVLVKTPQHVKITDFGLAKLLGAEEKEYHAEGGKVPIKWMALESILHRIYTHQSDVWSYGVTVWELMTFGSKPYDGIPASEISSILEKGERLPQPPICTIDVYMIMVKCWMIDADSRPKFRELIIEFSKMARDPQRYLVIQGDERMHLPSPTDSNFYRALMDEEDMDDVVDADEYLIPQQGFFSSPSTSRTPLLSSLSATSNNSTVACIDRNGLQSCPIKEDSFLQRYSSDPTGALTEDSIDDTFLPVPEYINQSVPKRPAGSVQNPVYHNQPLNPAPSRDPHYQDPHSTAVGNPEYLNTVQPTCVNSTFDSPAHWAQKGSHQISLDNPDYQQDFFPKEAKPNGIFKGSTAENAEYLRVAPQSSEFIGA

Consider `Cc1ccc(Oc2ccc(Nc3ncnc4sc5c(c34)CCN(C(=O)/C=C/CN(C)C)CC5)cc2Cl)cn1` [Compound 167, (E)-1-(4-((3-Chloro-4-((6-methylpyridin-3-yl)oxy)phenyl)amino)-8,9-dihydro-5H-pyrimido[5′,4′:4,5]thieno[2,3-d]azepin-7(6H)-yl)-4-(dimethylamino)but-2-en-1-one], for which the negative-log IC50 (pIC50) is below 5.00.

In turn, `Cc1ccc(Oc2ccc(Nc3ncnc4sc5c(c34)C(C)N(C(=O)/C=C/CN(C)C)C5)cc2C)cn1` (centres unmarked) [Compound 141, (E)-4-(dimethylamino)-1-(5-methyl-4-((3-methyl-4-((6-methylpyridin-3-yl)oxy)phenyl)amino)-5,7-dihydro-6H-pyrrolo[3′,4′:4,5]thieno[2,3-d]pyrimidin-6-yl)but-2-en-1-one] had a negative logarithm of the IC50 (pIC50) below 5.00. The figure for `Cc1ccc(Oc2ccc(Nc3ncnc4sc5c(c34)C(C)CN(C(=O)C=CCN3CCOCC3)C5)cc2C)cn1` (single isomer, unassigned) [Compound 176] is below 5.00; for `Cc1ccc(Oc2ccc(Nc3ncnc4sc5c(c34)CN(C(=O)C=CCN(C)C)C5C)cc2C)cn1` (single isomer, unassigned) [Compound 170] it is below 5.00. The same measure for `CCN(CC)C/C=C/C(=O)N1CCc2c(sc3ncnc(Nc4ccc(Oc5ccc(C)nc5)c(C)c4)c23)C1` [Compound 131]: 5.00 to 6.00.

For `Cc1ccc(Oc2ccc(Nc3ncnc4sc5c(c34)CCN(C(=O)/C=C/CN3CCO[C@@H](CO)C3)C5)cc2C)cn1` [Compound 144], the pIC50 is below 5.00. The figure for `Cc1ccc(Oc2ccc(Nc3ncnc4sc5c(c34)CCN(C(=O)/C=C/CN3CC(CO)(CO)C3)C5)cc2C)cn1` [Compound 134] is 5.00 to 6.00. The same measure for `Cc1cc(Nc2ncnc3sc4c(c23)CCN(C(=O)/C=C/CN(C)C)C4)ccc1Oc1ccn2ncnc2c1` [Compound 138, (E)-1-(4-((4-([1,2,4]triazolo[1,5-a]pyridin-7-yloxy)-3-methylphenyl)amino)-5,8-dihydropyrido[4′,3′:4,5]thieno[2,3-d]pyrimidin-7(6H)-yl)-4-(dimethylamino)but-2-en-1-one]: below 5.00; for `Cc1ccc(Oc2ccc(Nc3ncnc4sc5c(c34)CCN(C(=O)/C=C/CN3CCCC(c4nccs4)C3)C5)cc2C)cn1` (centres unmarked) [Compound 113]: below 5.00.

The compound `Cc1cn2ccc(Oc3ccc(Nc4ncnc5sc6c(c45)CCN(C(=O)/C=C/CN(C)C)C6)cc3C)cc2n1` [Compound 110, (E)-4-(dimethylamino)-1-(4-((3-methyl-4-((2-methylimidazo[1,2-a]pyridin-7-yl)oxy)phenyl)amino)-5,8-dihydropyrido[4′,3′:4,5]thieno[2,3-d]pyrimidin-7(6H)-yl)but-2-en-1-one] had a pIC50 below 5.00. The same measure for `COc1ccc(Oc2ccc(Nc3ncnc4sc5c(c34)CCN(C(=O)/C=C/CN3CC[C@@H](CO)C3)C5)cc2C)cn1` [Compound 143]: 5.00 to 6.00; for `Cc1ccc(Oc2ccc(Nc3ncnc4sc5c(c34)CN(C(=O)/C=C/CN(C)C)C5C)cc2C)cn1` (centres unmarked) [Compound 153, (E)-4-(dimethylamino)-1-(7-methyl-4-((3-methyl-4-((6-methylpyridin-3-yl)oxy)phenyl)amino)-5,7-dihydro-6H-pyrrolo[3′,4′:4,5]thieno[2,3-d]pyrimidin-6-yl)but-2-en-1-one]: below 5.00; for `Cc1ccc(Oc2ccc(Nc3ncnc4sc5c(c34)CCN(C(=O)/C=C/CN3CCC(CO)(CO)CC3)C5)cc2C)cn1` [Compound 135]: below 5.00. In turn, `Cc1ccc(Oc2ccc(Nc3ncnc4sc5c(c34)C[C@@H](C)N(C(=O)/C=C/CN(C)C)[C@@H]5C)cc2C)cn1` (racemic) [Compound 165, (E)-1-(6,8-trans-dimethyl-4-((3-methyl-4-((6-methylpyridin-3-yl)oxy)phenyl)amino)-5,8-dihydropyrido[4′,3′:4,5]thieno[2,3-d]pyrimidin-7(6H)-yl)-4-(dimethylamino)but-2-en-1-one] had a pIC50 below 5.00. The same measure for `Cc1ccc(Oc2ccc(Nc3ncnc4sc5c(c34)C(C)CN(C(=O)/C=C/CN(C)C)C5)cc2Cl)cn1` (centres unmarked) [Compound 171, (E)-1-(4-((3-Chloro-4-((6-methylpyridin-3-yl)oxy)phenyl)amino)-5-methyl-5,6-dihydropyrido[4′,3′:4,5]thieno[2,3-d]pyrimidin-7(8H)-yl)-4-(dimethylamino)but-2-en-1-one]: below 5.00; for `Cc1ccc(Oc2ccc(Nc3ncnc4sc5c(c34)CCN(C(=O)/C=C/CN3CC4CCC(C3)O4)C5)cc2C)cn1` [Compound 13]: below 5.00; for `Cc1cc(Nc2ncnc3sc4c(c23)CCN(C(=O)/C=C/CN(C)C)C4)ccc1Oc1ccc(N(C)C)nc1` [Compound 158, (E)-4-(dimethylamino)-1-(4-((4-((6-(dimethylamino)pyridin-3-yl)oxy)-3-methylphenyl)amino)-5,8-dihydropyrido[4′,3′:4,5]thieno[2,3-d]pyrimidin-7(6H)-yl)but-2-en-1-one]: 5.00 to 6.00.

In turn, `Cc1nc2cc(Oc3ccc(Nc4ncnc5sc6c(c45)CCN(C(=O)/C=C/CN(C)C)C6)cc3C)ccn2n1` [Compound 127, (E)-4-(dimethylamino)-1-(4-((3-methyl-4-((2-methyl-[1,2,4]triazolo[1,5-a]pyridin-7-yl)oxy)phenyl)amino)-5,6-dihydropyrido[4′,3′:4,5]thieno[2,3-d]pyrimidin-7(8H)-yl)but-2-en-1-one] had a pIC50 below 5.00. The same measure for `COc1cc(Nc2ncnc3sc4c(c23)CCN(C(=O)/C=C/CN(C)C)C4)ccc1Oc1ccccc1` [Compound 7, (E)-4-(dimethylamino)-1-(4-((3-methoxy-4-phenoxyphenyl)amino)-5,8-dihydropyrido[4′,3′:4,5]thieno[2,3-d]pyrimidin-7(6H)-yl)but-2-en-1-one]: below 5.00. As to `C=CC(=O)N1CCc2c(sc3ncnc(Nc4ccc(Oc5cccnc5)c(Cl)c4)c23)C1` [Compound 6, 1-(4-((3-chloro-4-(pyridin-3-yloxy)phenyl)amino)-5,8-dihydropyrido[4′,3′:4,5]thieno[2,3-d]pyrimidin-7(6H)-yl)prop-2-en-1-one], the negative-log IC50 (pIC50) is below 5.00.

`Cc1ccc(Oc2ccc(Nc3ncnc4sc5c(c34)CCN(C(=O)/C=C/CN3CCCC34CCC4)C5)cc2C)cn1` [Compound 115] had a negative logarithm of the IC50 (pIC50) below 5.00. The same measure for `Cc1ccc(Oc2ccc(Nc3ncnc4sc5c(c34)CCN(C(=O)/C=C/CN3CC4CC4(CO)C3)C5)cc2C)cn1` (centres unmarked) [Compound 118]: below 5.00; for `C=CC(=O)N1Cc2sc3ncnc(Nc4ccc(Oc5ccc(C)nc5)c(C)c4)c3c2C(C)C1` (single isomer, unassigned) [Compound 145]: below 5.00. The figure for `Cc1ccc(Oc2ccc(Nc3ncnc4sc5c(c34)CCN(C(=O)/C=C/CN3CCCC(F)(CO)C3)C5)cc2C)cn1` (centres unmarked) [Compound 150] is 5.00 to 6.00. The same measure for `Cc1ccc(Oc2ccc(Nc3ncnc4sc5c(c34)C[C@@H](C)N(C(=O)/C=C/CN(C)C)[C@H]5C)cc2C)cn1` (racemic) [Compound 149, (E)-1-(6,8-cis-dimethyl-4-((3-methyl-4-((6-methylpyridin-3-yl)oxy)phenyl)amino)-5,8-dihydropyrido[4′,3′:4,5]thieno[2,3-d]pyrimidin-7(6H)-yl)-4-(dimethylamino)but-2-en-1-one]: below 5.00; for `Cc1ccc(Oc2ccc(Nc3ncnc4sc5c(c34)CCN(C(=O)/C=C/CN3CC(C)OC(C)C3C)C5)cc2C)cn1` (centres unmarked) [Compound 117]: below 5.00.
